Assay results as given in ChEMBL document CHEMBL2157893, “A potent and orally active antagonist (SM-406/AT-406) of multiple inhibitor of apoptosis proteins (IAPs) in clinical development for cancer treatment” (J Med Chem, 2011).

What was measured:
[1] = Toxicity in human MCF12F cells assessed as induction of cell death at 10 uM after 48 hrs by trypan blue exclusion assay; assay type: cell-based
[2] = tested on: MDA-MB-231; experiment: cells; conditions: Homo sapiens, MDA-MB-231, 96 h
[3] = tested on: Plasma; experiment: Oral bioavailability in human MDA-MB-231 cells xenografted SCID mouse plasma at 30 mg/kg administered as single dose; assay type: ADME, organism-based; conditions: in vivo
[4] = Tmax in human MDA-MB-231 cells xenografted SCID mouse tumor at 100 mg/kg, po administered as single dose; assay type: ADME, organism-based, Neoplasm; parameters: dose 100 mg/kg, route oral
[5] = Tmax in human MDA-MB-231 cells xenografted SCID mouse plasma at 30 mg/kg, po administered as single dose; assay type: ADME, organism-based; parameters: dose 30 mg/kg, route oral
[6] = tested on: Plasma; experiment: Oral bioavailability in human MDA-MB-231 cells xenografted SCID mouse plasma at 100 mg/kg administered as single dose; assay type: ADME, organism-based; conditions: in vivo
[7] = tested on: Plasma; experiment: Half life in human MDA-MB-231 cells xenografted SCID mouse plasma at 10 mg/kg, po administered as single dose; assay type: ADME, organism-based; parameters: dose 10 mg/kg, route oral; conditions: in vivo
[8] = Toxicity in human prostate epithelial cells assessed as induction of cell death at 10 uM after 48 hrs by trypan blue exclusion assay; assay type: cell-based
[9] = tested on: SK-OV-3; experiment: cells; conditions: Homo sapiens, SK-OV-3, 96 h
[10] = Inhibition of Cytochrome P450; assay type: ADME
[11] = in vivo; conditions: SCID, mouse, tumor, po, 10 mg/kg
[12] = in vivo; conditions: SCID, mouse, tumor, po, 30 mg/kg
[13] = tested on: Plasma; experiment: AUC (0 to t) in human MDA-MB-231 cells xenografted SCID mouse plasma at 10 mg/kg, iv administered as single dose; assay type: ADME, organism-based; parameters: dose 10 mg/kg, route intravenous; conditions: in vivo
[14] = tested on: Plasma; experiment: AUC (0 to t) in human MDA-MB-231 cells xenografted SCID mouse plasma at 10 mg/kg, po administered as single dose; assay type: ADME, organism-based; parameters: dose 10 mg/kg, route oral; conditions: in vivo
[15] = species on record: Canis familiaris; experiment: Toxicity in dog assessed as drug tolerability; assay type: organism-based, Canis lupus familiaris; conditions: in vivo
[16] = target: E3 ubiquitin-protein ligase XIAP (Homo sapiens, UniProt P98170); experiment: Competitive inhibition of human XIAP BIR3 domain expressed in Escherichia coli BL21(DE3) after 2 to 3 hrs by fluorescence polarization assay
[17] = tested on: Plasma; experiment: Half life in human MDA-MB-231 cells xenografted SCID mouse plasma at 30 mg/kg, po administered as single dose; assay type: ADME, organism-based; parameters: dose 30 mg/kg, route oral; conditions: in vivo
[18] = tested on: Mus musculus; experiment: Toxicity in human MDA-MB-231 cells xenografted in SCID mouse at 200 mg/kg, po administered daily for 5 days/week for 2 to 3 weeks; conditions: in vivo
[19] = Tmax in human MDA-MB-231 cells xenografted SCID mouse tumor at 10 mg/kg, iv administered as single dose; assay type: ADME, organism-based, Neoplasm; parameters: dose 10 mg/kg, route intravenous
[20] = tested on: Plasma; experiment: Oral bioavailability in human MDA-MB-231 cells xenografted SCID mouse plasma at 10 mg/kg administered as single dose; assay type: ADME, organism-based; conditions: in vivo
[21] = Tmax in human MDA-MB-231 cells xenografted SCID mouse tumor at 10 mg/kg, po administered as single dose; assay type: ADME, organism-based, Neoplasm; parameters: dose 10 mg/kg, route oral
[22] = Tmax in human MDA-MB-231 cells xenografted SCID mouse tumor at 30 mg/kg, po administered as single dose; assay type: ADME, organism-based, Neoplasm; parameters: dose 30 mg/kg, route oral
[23] = Aqueous solubility of the compound; assay type: physicochemical; conditions: buffer
[24] = in vivo; conditions: SCID, mouse, tumor, po, 100 mg/kg
[25] = tested on: Plasma; experiment: Half life in human MDA-MB-231 cells xenografted SCID mouse plasma at 10 mg/kg, iv administered as single dose; assay type: ADME, organism-based; parameters: dose 10 mg/kg, route intravenous; conditions: in vivo
[26] = tested on: Plasma; experiment: AUC (0 to t) in human MDA-MB-231 cells xenografted SCID mouse plasma at 100 mg/kg, po administered as single dose; assay type: ADME, organism-based; parameters: dose 100 mg/kg, route oral; conditions: in vivo
[27] = tested on: Plasma; experiment: Half life in human MDA-MB-231 cells xenografted SCID mouse plasma at 100 mg/kg, po administered as single dose; assay type: ADME, organism-based; parameters: dose 100 mg/kg, route oral; conditions: in vivo
[28] = target: Baculoviral IAP repeat-containing protein 3 (Homo sapiens, UniProt Q13489); experiment: Competitive inhibition of human cIAP2 BIR3 domain expressed in Escherichia coli BL21(DE3) after 2 to 3 hrs by fluorescence polarization assay
[29] = AUC (0 to t) in human MDA-MB-231 cells xenografted SCID mouse tumor at 30 mg/kg, po administered as single dose; assay type: ADME, organism-based, Neoplasm; parameters: dose 30 mg/kg, route oral
[30] = in vivo; conditions: SCID, mouse, tumor, iv, 10 mg/kg
[31] = tested on: Plasma; experiment: AUC (0 to t) in human MDA-MB-231 cells xenografted SCID mouse plasma at 30 mg/kg, po administered as single dose; assay type: ADME, organism-based; parameters: dose 30 mg/kg, route oral; conditions: in vivo
[32] = AUC (0 to t) in human MDA-MB-231 cells xenografted SCID mouse tumor at 10 mg/kg, po administered as single dose; assay type: ADME, organism-based, Neoplasm; parameters: dose 10 mg/kg, route oral
[33] = AUC (0 to t) in human MDA-MB-231 cells xenografted SCID mouse tumor at 100 mg/kg, po administered as single dose; assay type: ADME, organism-based, Neoplasm; parameters: dose 100 mg/kg, route oral
[34] = Tmax in human MDA-MB-231 cells xenografted SCID mouse plasma at 10 mg/kg, po administered as single dose; assay type: ADME, organism-based; parameters: dose 10 mg/kg, route oral
[35] = AUC (0 to t) in human MDA-MB-231 cells xenografted SCID mouse tumor at 10 mg/kg, iv administered as single dose; assay type: ADME, organism-based, Neoplasm; parameters: dose 10 mg/kg, route intravenous

## CN[C@@H](C)C(=O)N[C@H]1CN(C(=O)CC(C)C)CC[C@H]2CC[C@@H](C(=O)NC(c3ccccc3)c3ccccc3)N2C1=O [XEVINAPANT]
[1]
  Activity: Non-toxic
[2]
  IC50: 144 nM
[3]
  F: 38%
[4]
  Tmax: 2 h
[5]
  Tmax: 2 h
[6]
  F: 46%
[7]
  t1/2: 2.4 h
[8]
  Activity: Non-toxic
[9]
  IC50: 142 nM
[10]
  inhibition (INH): Not Active
[11]
  Cmax: 260 ng/mL
[12]
  Cmax: 2400 ng/mL
[13]
  AUCt: 3800 ng·h/mL
[14]
  AUCt: 1200 ng·h/mL
[15]
  Activity: Non-toxic
[16]
  IC50: 225 nM
  Ki: 66.4 nM
[17]
  t1/2: 2.3 h
[18]
  Activity: Non-toxic
[19]
  Tmax: 0.25 h
[20]
  F: 31%
[21]
  Tmax: 1 h
[22]
  Tmax: 2 h
[23]
  solubility: > 50 mg/mL
[24]
  Cmax: 10800 ng/mL
[25]
  t1/2: 3 h
[26]
  AUCt: 17400 ng·h/mL
[27]
  t1/2: 5.4 h
[28]
  IC50: 22.1 nM
  Ki: 5.1 nM
[29]
  AUC(0-t): 9600 ng·h/mL
[30]
  Cmax: 3600 ng/mL
[31]
  AUCt: 4300 ng·h/mL
[32]
  AUC(0-t): 1100 ng·h/mL
[33]
  AUC(0-t): 57300 ng·h/mL
[34]
  Tmax: 1 h
[35]
  AUC(0-t): 8300 ng·h/mL
